Data published in ChEMBL document CHEMBL5532678, “Comprehensive Insights that Targeting PIM for Cancer Therapy: Prospects and Obstacles” (J Med Chem, 2024).

What was measured:
[1] = target: T1, Serine/threonine-protein kinase pim-2 (Homo sapiens, UniProt Q9P1W9); experiment: Inhibition of human PIM2 by ADP-Glo luminescent assay
HCT-116 [2] = experiment: Antiproliferative activity against human HCT-116 cells assessed as inhibition of cell growth incubated for 72 hrs by celltiter-glo assay; format: functional, cell-based; conditions: HCT-116, 72 h
MV4-11 = experiment: Antiproliferative activity against human MV4-11 cells assessed as inhibition of cell growth incubated for 72 hrs by Celltiter-glo assay; format: functional, cell-based; conditions: MV4-11, 72 h
[3] = target: T2, Serine/threonine-protein kinase pim-1 (Homo sapiens, UniProt P11309); experiment: Inhibition of human PIM1 by ADP Glo luminescent assay
[4] = target: T2, Serine/threonine-protein kinase pim-1; experiment: Inhibition of human full length-His6 tagged PIM1 (1 to 312 residues) expressed in Escherichia coli BL21 (DE3) using RSRHSSYPAGT as peptide substrate incubated for 10 mins in presence of [gamma-32P]ATP by radiometric scintillation assay
[5] = target: T1, Serine/threonine-protein kinase pim-2; experiment: Inhibition of human full length-His6 tagged PIM2 (1 to 311 residues) expressed in Escherichia coli BL21 (DE3) assessed as inhibition constant using RSRHSSYPAGT as peptide substrate incubated for 10 mins in presence of [gamma-32P]ATP by radiometric scintillation assay
[6] = target: T2, Serine/threonine-protein kinase pim-1; experiment: Binding affinity to PIM1 (unknown origin) assessed as inhibition constant
[7] = target: T1, Serine/threonine-protein kinase pim-2; experiment: Binding affinity to PIM2 (unknown origin) assessed as inhibition constant
HCT-116 [8] = experiment: Antiproliferative activity against human HCT-116 cells assessed as inhibition of cell growth incubated for 24 hrs by MTT assay; format: functional, cell-based; conditions: HCT-116, 24 h
MCF7 [9] = experiment: Antiproliferative activity against human MCF7 cells assessed as reduction in cell growth incubated for 48 hrs by MTT assay; format: functional, cell-based; conditions: MCF7, 48 h
[10] = target: T2, Serine/threonine-protein kinase pim-1; experiment: Inhibition of human PIM1 by discoverX kinome scan assay
[11] = Inhibition of PI3K (unknown origin); parameters: species or system Homo sapiens
[12] = target: Serine/threonine-protein kinase mTOR (Homo sapiens, UniProt P42345); experiment: Inhibition of mTOR (unknown origin)
[13] = target: T1, Serine/threonine-protein kinase pim-2; experiment: Inhibition of PIM2 (unknown origin) by FRET based Z-LYTE kinase assay
[14] = target: T2, Serine/threonine-protein kinase pim-1; experiment: Inhibition of PIM1 (unknown origin) by FRET based Z-LYTE kinase assay
[15] = target: T3, Serine/threonine-protein kinase pim-3 (Homo sapiens, UniProt Q86V86); experiment: Inhibition of PIM3 (unknown origin) by FRET based Z-LYTE kinase assay
[16] = target: T4, Prostaglandin G/H synthase 2 (Homo sapiens, UniProt P35354); experiment: Inhibition of COX2 (unknown origin) fluorescence based analysis
T4 sequence (P35354 whole entry): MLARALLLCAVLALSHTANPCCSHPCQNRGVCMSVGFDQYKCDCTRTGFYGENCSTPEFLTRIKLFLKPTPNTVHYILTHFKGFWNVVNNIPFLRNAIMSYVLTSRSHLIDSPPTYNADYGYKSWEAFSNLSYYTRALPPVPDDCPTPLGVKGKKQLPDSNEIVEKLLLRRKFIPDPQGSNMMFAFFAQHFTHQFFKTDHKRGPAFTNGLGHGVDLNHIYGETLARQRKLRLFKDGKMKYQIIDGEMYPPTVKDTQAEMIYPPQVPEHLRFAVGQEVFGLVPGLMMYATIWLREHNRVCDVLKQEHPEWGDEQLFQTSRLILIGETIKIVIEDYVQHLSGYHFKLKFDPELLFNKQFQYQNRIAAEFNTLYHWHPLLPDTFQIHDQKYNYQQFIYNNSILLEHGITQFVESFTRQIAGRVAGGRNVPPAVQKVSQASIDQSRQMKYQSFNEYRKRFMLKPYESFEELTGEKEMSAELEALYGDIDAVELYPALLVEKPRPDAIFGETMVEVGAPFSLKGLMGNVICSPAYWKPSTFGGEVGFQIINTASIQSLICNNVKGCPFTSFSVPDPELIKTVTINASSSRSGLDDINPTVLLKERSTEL

[17] = target: T2, Serine/threonine-protein kinase pim-1; experiment: Inhibition of human recombinant PIM1
[18] = target: Prostaglandin G/H synthase 1 (Homo sapiens, UniProt P23219); experiment: Inhibition of COX1 (unknown origin) fluorescence based analysis
[19] = target: T5, Polyunsaturated fatty acid 5-lipoxygenase (Homo sapiens, UniProt P09917); experiment: Inhibition of 5-LOX in human PMNL cells; format: cell-based
T5 sequence (P09917 whole entry): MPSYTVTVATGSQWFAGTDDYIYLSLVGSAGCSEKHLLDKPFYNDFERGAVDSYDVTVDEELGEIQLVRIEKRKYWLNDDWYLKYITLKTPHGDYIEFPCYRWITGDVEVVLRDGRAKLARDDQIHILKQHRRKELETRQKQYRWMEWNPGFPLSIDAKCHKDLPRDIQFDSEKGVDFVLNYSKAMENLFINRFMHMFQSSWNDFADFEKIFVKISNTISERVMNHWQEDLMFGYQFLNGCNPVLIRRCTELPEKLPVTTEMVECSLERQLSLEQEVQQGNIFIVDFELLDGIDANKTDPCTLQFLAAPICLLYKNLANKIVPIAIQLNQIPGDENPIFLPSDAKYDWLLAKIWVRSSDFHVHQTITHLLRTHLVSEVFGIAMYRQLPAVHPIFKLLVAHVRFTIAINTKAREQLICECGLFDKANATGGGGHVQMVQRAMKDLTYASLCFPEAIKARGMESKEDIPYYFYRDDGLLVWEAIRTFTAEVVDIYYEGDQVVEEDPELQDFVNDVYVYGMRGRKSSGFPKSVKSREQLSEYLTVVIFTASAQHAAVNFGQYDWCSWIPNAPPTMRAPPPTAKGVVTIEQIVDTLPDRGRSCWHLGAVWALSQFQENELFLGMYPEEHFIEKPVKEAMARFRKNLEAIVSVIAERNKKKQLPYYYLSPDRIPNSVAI

[20] = target: T1, Serine/threonine-protein kinase pim-2; experiment: Inhibition of N-terminal GST-tagged full length human PIM2 (1 to 311 residues) expressed in baculovirus expression system using S6K2 peptide as substrate at 1 uM in presence of ATP by Mobility shift assay
[21] = target: T2, Serine/threonine-protein kinase pim-1; experiment: Inhibition of human PIM1 using KKRNRTLTK as substrate in presence of [gamma-33P]-ATP by hotspot kinase assay
[22] = target: T3, Serine/threonine-protein kinase pim-3; experiment: Inhibition of N-terminal GST-tagged full length human PIM3 (1 to 326 residues) expressed in baculovirus expression system using S6K2 peptide as substrate at 1 uM in presence of ATP by Mobility shift assay
MCF7 [23] = experiment: Cytotoxicity against human MCF7 cells assessed as reduction in cell viability by MTT assay; format: functional, cell-based

Q: With `Cc1nc2cccc3c2nc1N[C@H](C)/C=C\C[C@H]1CNC(=O)c2cc-3[nH]c21` as the molecule, how does the IC50 [1] read?
A: The IC50 was 500 nM.

Q: What about the IC50 (HCT-116 [2]) of the same molecule?
A: The IC50 was 45300 nM.

Q: What about the IC50 (MV4-11) of the same molecule?
A: Its IC50 is 35500 nM.

Q: And the IC50 [3]?
A: Its IC50 is 130 nM.

Q: With `Cc1cccc(-c2c(-c3cccc(OC(F)(F)F)c3)cc3n2[C@@H](CCN)CNC3=O)c1` as the molecule, how does the IC50 [4] read?
A: The IC50 was 7 nM.

Q: What about the IC50 [5] of the same molecule?
A: Its IC50 is 25000 nM.

Q: Which results are given for `CC(C)(C)Nc1nnc(-c2ccc3[nH]cc(-c4nccc(C5CC5)n4)c3c2)o1`?
A: Ki [6]: 0.55 nM; Ki [7]: 0.28 nM

Q: Which results are given for `COc1cc(C2NC(=O)c3sc4nc(C)c(Br)c(C)c4c3N2)ccc1O` (stereo not given)?
A: IC50 (HCT-116 [8]): 360 nM; IC50 (MCF7 [9]): 460 nM

Q: With `Cc1nc2sc3c(c2c(C)c1Br)NC(c1ccc(O)c(O)c1)NC3=O` (stereo not given) as the molecule, how does the IC50 (HCT-116 [8]) read?
A: The IC50 was 370 nM.

Q: What about the IC50 (MCF7 [9]) of the same molecule?
A: The IC50 was 220 nM.

Q: Which IC50 [10] does the source give for `N#Cc1nnc2c3c(-c4ccccc4Cl)c(C#N)c(=O)[nH]c3nn2c1N` here?
A: Its IC50 is 43000 nM.

Q: With `COc1ncc2cc1NS(=O)(=O)c1cccc(c1)C(=O)NCc1cccc(c1)-c1ncnc3c1SC2=C3` as the molecule, how does the IC50 [11] read?
A: The IC50 was 16.8 nM.

Q: And the IC50 [12]?
A: Its IC50 is > 10000 nM.

Q: Which results are given for `COc1ncc2cc1NS(=O)(=O)c1ccc(F)c(c1)C(=O)NCC1=CC=C(S1)c1ncnc3c1SC2=C3C`?
A: IC50 [11]: 0.13 nM; IC50 [12]: 74500 nM

Q: Which IC50 [13] does the source give for `CCOc1cc(/C=C2\SC(=S)NC2=O)ccc1O` here?
A: Its IC50 is 310 nM.

Q: What about the IC50 [14] of the same molecule?
A: Its IC50 is 420 nM.

Q: What about the IC50 [15] of the same molecule?
A: Its IC50 is 170 nM.

Q: Which results are given for `CN1CCN(c2ccc(-n3cnc4ccc(/C=C5\SC(=S)NC5=O)cc43)cc2)CC1`?
A: IC50 [13]: 16000 nM; IC50 [14]: 16000 nM; IC50 [15]: 6400 nM

Q: With `Cc1ccc(C(C)C)c(O)c1/C=N/N=C1/SC(CC(=O)O)C(=O)N1c1cccc2ccccc12` (stereo not given) as the molecule, how does the IC50 [16] read?
A: The IC50 was 9110 nM.

Q: What about the IC50 [17] of the same molecule?
A: Its IC50 is 4090 nM.

Q: What about the IC50 [18] of the same molecule?
A: The IC50 was 200 nM.

Q: What about the IC50 [19] of the same molecule?
A: Its IC50 is 3160 nM.

Q: What about the IC50 [20] of the same molecule?
A: The IC50 was 1740 nM.

Q: For `CN1CCN(C[C@@H](NC(=O)CC2CNC(=O)c3cc(-c4cccc(Cl)c4)cn32)C2CCCCC2)CC1` (stereo not given in full), which IC50 [4] is on record?
A: Its IC50 is 1.5 nM.

Q: For `N#Cc1c(-c2ccccc2)cc(-c2ccccc2)nc1OCC(=O)NO`, which IC50 [21] is on record?
A: The IC50 was 427 nM.

Q: Which results are given for `COc1ccc(/C=C/C(/C=C2/C(=O)Nc3cc(Br)ccc32)=N/O)cc1`?
A: IC50 [4]: 470 nM; IC50 [22]: 360 nM; IC50 [5]: 220 nM

Q: Which IC50 [10] does the source give for `COc1ccc(N2CCN(C(=O)c3sc4nc(C)c(Br)c(C)c4c3N)CC2)cc1` here?
A: The IC50 was 12700 nM.

Q: What about the IC50 (MCF7 [23]) of the same molecule?
A: Its IC50 is 107000 nM.

Q: For `COc1ccc(N2C(=O)C(CC(=O)O)S/C2=N/N=C/c2c(C)ccc(C(C)C)c2O)cc1` (stereo not given), which IC50 [16] is on record?
A: Its IC50 is 37 nM.

Q: What about the IC50 [17] of the same molecule?
A: Its IC50 is 7210 nM.

Q: And the IC50 [18]?
A: The IC50 was 14000 nM.

Q: What about the IC50 [19] of the same molecule?
A: Its IC50 is 2810 nM.

Q: What about the IC50 [20] of the same molecule?
A: Its IC50 is 976 nM.
